From patent US12415770B2, “Modulators of liver receptor homologue 1 (LRH-1) and uses” (Emory University, priority 2017, dated 2025)

Tests used:
[1] = molecular target: T1, LRH-1 (Homo sapiens, UniProt O00482); experiment: Luciferase reporter assay (SHP-luc) in HeLa cells transfected with full-length LRH-1; assay type: cell-based; conditions: for EC50 / EC50 (μM): HeLa cells, SHP-luc reporter, 24 hours, 0.03-30 μM; for Relative Efficacy: fold increase over baseline (DMSO-treated cells) relative to the fold increase induced by RJW100
T1 construct: The transfected plasmids included full-length LRH-1 in a pCI vector; expressed in transfected cells; host or cells: HeLa
Procedure: EC50 and Relative Activity values were calculated from luciferase reporter assays.

[2] = molecular target: T2, LRH-1 LBD (Homo sapiens, UniProt O00482); experiment: Thermofluor (DSF) assay, purified LRH-1 LBD-His protein; assay type: binding; conditions: for ΔTm at 50 µM: 50 μM compound, relative to DLPC-bound LRH-1, read-out: ΔTm (mean +/− SEM) (° C.)
T2 construct: LRH-1 LBD (residues 299-541) in the pMSC7 vector was expressed in BL21 (DE3) pLysS E. coli; made in house; host or cells: E. coli BL21 (DE3) pLysS
Procedure: Thermofluor assays—Purified LRH-1 LBD-His protein (0.2 mg/ml) was incubated overnight with 50 μM of each compound at 4° C. The final DMSO concentration in the reactions was 1%. SYPRO orange dye (Invitrogen) was then added at a 1:1000 dilution. Reactions were heated at a rate of 0.5° C. per minute, using a StepOne Plus Real Time PCR System (ThermoFisher). […] Data were analyzed by first subtracting baseline fluorescence (ligands+SYPRO with no protein) and then fitting the curves using the Bolzman equation (GraphPad Prism, v6) to determine the Tm. […]

T2 sequence (O00482 299-541): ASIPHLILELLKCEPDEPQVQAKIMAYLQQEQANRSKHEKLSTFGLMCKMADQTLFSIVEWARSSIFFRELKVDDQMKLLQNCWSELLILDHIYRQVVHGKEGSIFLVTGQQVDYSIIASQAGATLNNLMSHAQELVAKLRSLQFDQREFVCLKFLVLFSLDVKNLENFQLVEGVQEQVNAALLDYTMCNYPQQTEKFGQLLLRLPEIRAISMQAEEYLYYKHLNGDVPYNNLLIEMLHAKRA
T1 sequence (O00482 whole entry): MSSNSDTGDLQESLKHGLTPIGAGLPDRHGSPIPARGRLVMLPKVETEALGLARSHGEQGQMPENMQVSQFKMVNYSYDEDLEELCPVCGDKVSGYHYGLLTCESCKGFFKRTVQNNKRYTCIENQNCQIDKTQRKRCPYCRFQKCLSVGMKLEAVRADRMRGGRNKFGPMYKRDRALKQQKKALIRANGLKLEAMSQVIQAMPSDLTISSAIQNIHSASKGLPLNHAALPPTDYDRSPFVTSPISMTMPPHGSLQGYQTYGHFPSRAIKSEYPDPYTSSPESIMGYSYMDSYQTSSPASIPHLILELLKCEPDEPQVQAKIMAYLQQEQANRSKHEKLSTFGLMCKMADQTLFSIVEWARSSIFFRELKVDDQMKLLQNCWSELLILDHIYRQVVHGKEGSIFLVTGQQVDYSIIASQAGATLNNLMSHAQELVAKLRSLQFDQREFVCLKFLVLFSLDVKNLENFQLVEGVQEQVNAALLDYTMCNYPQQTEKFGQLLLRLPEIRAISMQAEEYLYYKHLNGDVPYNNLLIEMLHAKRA

SMILES | EC50 [1] [µM] | Relative Efficacy [1] | ΔTm at 50 µM [2] [°C] | further results
C=C(c1ccccc1)[C@@]12CC[C@@H](O)C1CC(CCCCCC)=C2c1cc(O)cc(F)c1 (mixture of isomers) [Compound 18f, (Exo)-4-(3-fluoro-5-hydroxyphenyl)-5-hexyl-3a-(1-phenylvinyl)-1,2,3,3a,6,6a-hexahydropentalen-1-ol] | > 30 | 2.8 | < 1 | –
C=C(c1ccccc1)C12CCC(O)C1CC(CCCCCCCC(=O)N1CCC(COP(=O)([O-])OCC[N+](C)(C)C)C1)=C2c1ccccc1 [Compound 13b, ((3R)-1-(8-(6-(exo)-hydroxy-3-phenyl-3a-(1-phenylvinyl)-1,3a,4,5,6,6a-hexahydropentalen-2-yl)octanoyl)pyrrolidin-3-yl)methyl (2-(trimethylammonio)ethyl)phosphate] | 12 | 0.96 | – | –
C=C(c1ccccc1)C12CCC(O)C1CC(CCCCCCO)=C2c1ccccc1 (stereo not drawn) [Compound 7e, Exo-5-(6-hydroxyhexyl)-4-phenyl-3a-(1-phenylvinyl)-1,2,3,3a,6,6a-hexahydropentalen-1-ol] | 1 | 1.74 | 3.3 | –
C=C(c1ccccc1)[C@@]12CC[C@@H](O)C1CC(CCCCCC)=C2c1cc(N)ccc1F (mixture of isomers) [Compound 16g, (Exo)-4-(5-amino-2-fluorophenyl)-5-hexyl-3a-(1-phenylvinyl)-1,2,3,3a,6,6a-hexahydropentalen-1-ol] | 24 | 3.8 | < 1 | –
C=C(c1ccccc1)[C@@]12CC[C@@H](N=[N+]=[N-])C1CC(CCCCCC)=C2c1ccccc1 (stereo partly drawn) [Compound 31-exo, (Endo or Exo)-5-hexyl-4-phenyl-3a-(1-phenylvinyl)-1,2,3,3a,6,6a-hexahydropentalen-1-azide] | 2 | 0.45 | < 1 | –
C=C(c1ccccc1)C12CCC(OS(=O)(=O)NC(N)=O)C1CC(CCCCCC)=C2c1ccccc1 (stereo not drawn) [Compound 50-endo, (Endo or Exo)-5-hexyl-4-phenyl-3a-(1-phenylvinyl)-1,2,3,3a,6,6a-hexahydropentalen-1-yl carbamoylsulfamate] | – | – | – | LRH-1 activation ([1]; WT LRH-1): comparable or slightly higher LRH-1 activation; stabilization of LRH-1-ligand complex / Tm shift ([2]; WT LRH-1): greatly stabilized the LRH-1-ligand complex
C=C(c1ccccc1)[C@@]12CC[C@H](NC(C)=O)C1CC(CCCCCC)=C2c1ccccc1 (stereo partly drawn) [Compound 35-endo, N-((endo or exo)-5-hexyl-4-phenyl-3a-(1-phenylvinyl)-1,2,3,3a,6,6a-hexahydropentalen-1-yl) acetamide] | – | – | 0.4 | –
C=C(c1ccccc1)[C@@]12CC[C@@H](OC(=O)NS(=O)(=O)O)C1CC(CCCCCC)=C2c1ccccc1 (stereo partly drawn) [Compound 40-exo, ((((endo or exo)-5-hexyl-4-phenyl-3a-(1-phenylvinyl)-1,2,3,3a, 6,6a-hexahydropentalen-1-yl)oxy)carbonyl)sulfamic acid] | > 30 | 0 | – | –
C=C(c1ccccc1)C12CC[C@@H](O)C1CC(CCCCCC)=C2c1cccc(O)c1 (mixture of isomers) [Compound 15f, (Exo)-5-hexyl-4-(3-hydroxyphenyl)-3a-(1-phenylvinyl)-1,2,3,3a,6,6a-hexahydropentalen-1-ol] | – | 0.85 | 1.4 | EC50 (μM) [1]: cnc
C=C(c1ccccc1)[C@@]12CC[C@@H](NC(N)=O)C1CC(CCCCCC)=C2c1ccccc1 (stereo partly drawn) [Compound 36-exo, 1-((endo or exo)-5-hexyl-4-phenyl-3a-(1-phenylvinyl)-1,2,3,3a, 6,6a-hexahydropentalen-1-yl) urea] | – | – | -1.4 | –
C=C(c1ccccc1)C12CCC(O)C1CC(CCCCCCCCCCO)=C2c1ccccc1 (stereo not drawn) [Compound 11e, Exo-5-(10-hydroxydecyl)-4-phenyl-3a-(1-phenylvinyl)-1,2,3,3a,6,6a-hexahydropentalen-1-ol] | 2 | 2.83 | < 1 | –
C=C(c1ccccc1C)[C@@]12CC[C@@H](O)C1CC(CCCCCC)=C2c1ccccc1 (mixture of isomers) [Compound 21, (Exo)-5-hexyl-4-phenyl-3a-(1-(o-tolyl)vinyl)-1,2,3,3a,6,6a-hexahydropentalen-1-ol] | – | – | 1.3 | –
C=C(c1ccccc1)[C@@]12CC[C@@H](O)[C@@H]1CC(CCCCCCCC(=O)OC[C@H](COP(=O)([O-])OCC[N+](C)(C)C)OC(=O)CC)=C2c1ccccc1 [Compound 14d, (2R)-3-((8-(6-(exo)-hydroxy-3-phenyl-3a-(1-phenylvinyl)-1,3a,4,5,6,6a-hexahydropentalen-2-yl)octanoyl)oxy)-2-(propionyloxy) propyl(2-(trimethylammonio)ethyl) phosphate] | 17 | 3.35 | – | –
C=C(c1ccccc1)C12CC(O)C(CN)C1CC(CCCCCC)=C2c1ccccc1 (centres unmarked) [Compound 51, 3-(aminomethyl)-5-hexyl-6-phenyl-6a-(1-phenylvinyl)-1,2,3,3a,4,6a-hexahydropentalen-2-ol] | – | 0.65 | – | EC50 (μM) [1]: cnc
C=C(c1ccccc1)[C@@]12CC[C@H](OS(N)(=O)=O)C1CC(CCCCCC)=C2c1ccccc1 (stereo partly drawn) [Compound 28-endo, (Endo or Exo)-5-hexyl-4-phenyl-3a-(1-phenylvinyl)-1,2,3,3a,6,6a-hexahydropentalen-1-yl sulfamate] | – | – | 8 | –
C=C(c1ccc(Br)cc1)[C@@]12CC[C@@H](O)C1CC(CCCCCC)=C2c1ccccc1 (mixture of isomers) [Compound 23a, (Exo)-3a-(1-(4-bromophenyl)vinyl)-5-hexyl-4-phenyl-1,2,3,3a,6,6a-hexahydropentalen-1-ol] | – | 0.06 | – | EC50 (μM) [1]: cnc
C=C(c1ccccc1)C12CCC(CN)C1CC(CCCCCC)=C2c1ccccc1 (stereo not drawn) [Compound 48-endo, (endo or exo) (5-hexyl-4-phenyl-3a-(1-phenylvinyl)-1,2,3,3a,6,6a-hexahydropentalen-1-10 yl)methanamine] | – | – | 0 | –
C=C(c1ccccc1)[C@@]12CC[C@@H](O)C1CC(CCCCCC)=C2c1cc(O)ccc1C (mixture of isomers) [Compound 17f, (Exo)-5-hexyl-4-(5-hydroxy-2-methylphenyl)-3a-(1-phenylvinyl)-1,2,3,3a,6,6a-hexahydropentalen-1-ol] | – | – | -1.9 | –
C=C(c1ccccc1)[C@@]12CC[C@H](NC(N)=O)C1CC(CCCCCC)=C2c1ccccc1 (stereo partly drawn) [Compound 36-endo, 1-((endo or exo)-5-hexyl-4-phenyl-3a-(1-phenylvinyl)-1,2,3,3a, 6,6a-hexahydropentalen-1-yl) urea] | – | – | 1.1 | –
C=C(c1ccccc1F)[C@@]12CC[C@@H](O)C1CC(CCCCCC)=C2c1ccccc1 (mixture of isomers) [Compound 20, (Exo)-3a-(1-(2-fluorophenyl)vinyl)-5-hexyl-4-phenyl-1,2,3,3a,6,6a-hexahydropentalen-1-ol] | – | – | 1.4 | –
C=C(c1ccccc1)C12CC(O)C(O)C1CC(CCCCCC)=C2c1ccccc1 (centres unmarked) [Compound 52, 5-hexyl-4-phenyl-3a-(1-phenylvinyl)-1,2,3,3a,6,6a-hexahydropentalene-1,2-diol] | 0.01 | −0.25 | – | –
C=C(c1ccccc1)[C@@]12CC[C@@H](OS(N)(=O)=O)C1CC(CCCCCC)=C2c1ccccc1 (stereo partly drawn) [Compound 28-exo, (Endo or Exo)-5-hexyl-4-phenyl-3a-(1-phenylvinyl)-1,2,3,3a,6,6a-hexahydropentalen-1-yl sulfamate] | – | – | 5.1 | –
